In patent publication US20110212142A1, “CURCUMINOIDS AND ITS METABOLITES FOR THE APPLICATION IN OCULAR DISEASES” (LAILA PHARMACEUTICALS PVT.LTD., priority 2008, published 2011):
Like-named read-outs stand apart in the source and are kept apart here.

Experiment: Particle size distribution study (Malvern particle size analyzer, laser diffraction)
Type: physicochemical
Procedure: The study was conducted using Malvern particle size analyzer. The map of scattering intensity versus angle is the primary source of information used to calculate the particle size. The scattering of particles is accurately predicted by the Mie scattering model allowing accurate sizing across the widest possible dynamic range. During the laser diffraction measurement, particles are passed through a focused laser beam. These particles scatter light at an angle that is inversely proportional to their size. The angular intensity of the scattered light is then measured by a series of photosensitive detectors. The advantage of this study is that there is no sample preparation involved.
This is a clear indication that the process of nanoemulsification followed has effectively transformed the large sized particles to nanosized coated curcuminoid particles. Additional peaks can be observed which is contributed by the high molecular weight excipients used to prepare the formulation.

particle size: 373 nm | particle size (listed as unformulated curcumin): 374 nm
Structure (SMILES): COc1cc(/C=C/C(=O)CC(=O)/C=C/c2ccc(O)c(OC)c2)ccc1O [unformulated curcumin 98%, curcumin]
